From the supplement of paper PMC11061612

Tests used:
Assay in all cases: combination Emax (second highest fraction inhibited in the dose matrix, 72 h); higher = more inhibition; extreme values may be limits of the assay
[1] = tested on: CAL-39 (Other Solid Carcinomas)
Summary of the method: (§1)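 Cell lines grown in DMEM/F12 or RPMI with 10% FBS were plated in 1536-well plates and held 24 hours at 37°C, 5% CO2 before 72 hours of exposure to two-drug dose matrices, with DMSO typically at 0.2%. CellTiter-Glo 2.0 luminescence gave viability, which was converted to inhibition. Vehicle wells were set to 0 and blank wells to 1. Combination Emax is the second-highest inhibition in the matrix, and Bliss excess is the observed combination effect minus the expected EA + EB − EA·EB, where EA and EB are the single-agent effects.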

CS1 (Chondrosarcoma) = tested on: CS1 (Chondrosarcoma)
Summary of the method: as §1

[2] = tested on: D-283MED (Other Solid Carcinomas)
Summary of the method: as §1

D-392MG (Glioblastoma) = tested on: D-392MG (Glioblastoma)
Summary of the method: as §1

[3] = tested on: DOK (Oral Cavity Carcinoma)
Summary of the method: as §1

[4] = tested on: EFM-192A (Breast Carcinoma)
Summary of the method: as §1

EW-22 (Ewing's Sarcoma) = tested on: EW-22 (Ewing's Sarcoma)
Summary of the method: as §1

[5] = tested on: GDM-1 (Acute Myeloid Leukemia)
Summary of the method: as §1

[6] = tested on: HCC-827 (Lung Adenocarcinoma)
Summary of the method: as §1

[7] = tested on: HCC1143 (Breast Carcinoma)
Summary of the method: as §1

[8] = tested on: HLE (Hepatocellular Carcinoma)
Summary of the method: as §1

HuO9 (Osteosarcoma) = tested on: HuO9 (Osteosarcoma)
Summary of the method: as §1

[9] = tested on: JHH-6 (Hepatocellular Carcinoma)
Summary of the method: as §1

MSTO-211H (Mesothelioma) = tested on: MSTO-211H (Mesothelioma)
Summary of the method: as §1

[10] = tested on: NCI-H1688 (Small Cell Lung Carcinoma)
Summary of the method: as §1

[11] = tested on: PA-TU-8902 (Pancreatic Carcinoma)
Summary of the method: as §1

SK-MEL-1 (Melanoma) = tested on: SK-MEL-1 (Melanoma)
Summary of the method: as §1

[12] = tested on: SNG-M (Endometrial Carcinoma)
Summary of the method: as §1

[13] = tested on: YT (Other Blood Carcinomas)
Summary of the method: as §1

CN(C)CCCOc1ccc(-c2ccc3ncc4c(c3c2)n(C2CCOCC2)c(=O)n4C)cn1 [AZD0156] + C=CCn1c(=O)c2cnc(Nc3ccc(N4CCN(C)CC4)cc3)nc2n1-c1cccc(C(C)(C)O)n1 [AZD1775] (first compound max 1 µM, partner max 1 µM)
combination Emax [1]: 0.376
combination Emax (CS1 (Chondrosarcoma)): 0.509
combination Emax [2]: 0.996
combination Emax (D-392MG (Glioblastoma)): 0.18
combination Emax [3]: 0.375
combination Emax [4]: 0.353
combination Emax (EW-22 (Ewing's Sarcoma)): 0.616
combination Emax [5]: 0.823
combination Emax [6]: 0.456
combination Emax [7]: 0.6
combination Emax [8]: 0.747
combination Emax (HuO9 (Osteosarcoma)): 0.709
combination Emax [9]: 0.148
combination Emax (MSTO-211H (Mesothelioma)): 0.667
combination Emax [10]: 0.646
combination Emax [11]: 0.252
combination Emax (SK-MEL-1 (Melanoma)): 0.442
combination Emax [12]: 0.58
combination Emax [13]: 0.888

CN(C)CCCOc1ccc(-c2ccc3ncc4c(c3c2)n(C2CCOCC2)c(=O)n4C)cn1 [AZD0156] + CCN(CCO)CCCOc1ccc2c(Nc3cc(CC(=O)Nc4cccc(F)c4)[nH]n3)ncnc2c1 [AZD2811] (first compound max 1 µM, 7x7, partner max 1 µM)
combination Emax [1]: 0.33
combination Emax (CS1 (Chondrosarcoma)): 0.301
combination Emax [2]: 0.769
combination Emax (D-392MG (Glioblastoma)): 0.0413
combination Emax [3]: 0.334
combination Emax [4]: 0.269
combination Emax (EW-22 (Ewing's Sarcoma)): 0.694
combination Emax [5]: 0.81
combination Emax [6]: 0.143
combination Emax [7]: 0.302
combination Emax [8]: 0.414
combination Emax (HuO9 (Osteosarcoma)): 0.224
combination Emax [9]: 0.241
combination Emax (MSTO-211H (Mesothelioma)): 0.27
combination Emax [10]: 0.143
combination Emax [11]: 0.0699
combination Emax (SK-MEL-1 (Melanoma)): 0.275
combination Emax [12]: 0.0754
combination Emax [13]: 0.591

CN(C)CCCOc1ccc(-c2ccc3ncc4c(c3c2)n(C2CCOCC2)c(=O)n4C)cn1 [AZD0156] + C[C@@H]1COCCN1C2=NC(=NC(=C2)C3(CC3)[S@](=N)(=O)C)C4=C5C=CNC5=NC=C4 [AZD6738] (first compound max 1 µM, 7x7, partner max 10 µM)
combination Emax [1]: 0.5
combination Emax (CS1 (Chondrosarcoma)): 0.674
combination Emax [2]: 1
combination Emax (D-392MG (Glioblastoma)): 0.374
combination Emax [3]: 0.264
combination Emax [4]: 0.245
combination Emax (EW-22 (Ewing's Sarcoma)): 0.905
combination Emax [5]: 0.52
combination Emax [6]: 0.495
combination Emax [7]: 0.871
combination Emax [8]: 0.778
combination Emax (HuO9 (Osteosarcoma)): 0.838
combination Emax [9]: 0.337
combination Emax (MSTO-211H (Mesothelioma)): 0.856
combination Emax [10]: 0.382
combination Emax [11]: 0.41
combination Emax (SK-MEL-1 (Melanoma)): 0.442
combination Emax [12]: 0.964
combination Emax [13]: 0.727

C=CCn1c(=O)c2cnc(Nc3ccc(N4CCN(C)CC4)cc3)nc2n1-c1cccc(C(C)(C)O)n1 [AZD1775] + C[C@@H]1COCCN1C2=NC(=NC(=C2)C3(CC3)[S@](=N)(=O)C)C4=C5C=CNC5=NC=C4 [AZD6738] (first compound max 1 µM, partner max 10 µM)
combination Emax [1]: 0.598
combination Emax (CS1 (Chondrosarcoma)): 0.766
combination Emax [2]: 1
combination Emax (D-392MG (Glioblastoma)): 0.483
combination Emax [3]: 0.545
combination Emax [4]: 0.39
combination Emax (EW-22 (Ewing's Sarcoma)): 0.902
combination Emax [5]: 0.861
combination Emax [6]: 0.609
combination Emax [7]: 0.906
combination Emax [8]: 0.886
combination Emax (HuO9 (Osteosarcoma)): 0.94
combination Emax [9]: 0.553
combination Emax (MSTO-211H (Mesothelioma)): 0.85
combination Emax [10]: 0.789
combination Emax [11]: 0.49
combination Emax (SK-MEL-1 (Melanoma)): 0.55
combination Emax [12]: 0.947
combination Emax [13]: 0.897

C=CCn1c(=O)c2cnc(Nc3ccc(N4CCN(C)CC4)cc3)nc2n1-c1cccc(C(C)(C)O)n1 [AZD1775] + O=C(c1cc(Cc2n[nH]c(=O)c3ccccc23)ccc1F)N1CCN(C(=O)C2CC2)CC1 [Olaparib] (first compound max 1 µM, partner max 10 µM)
combination Emax [1]: 0.402
combination Emax (CS1 (Chondrosarcoma)): 0.564
combination Emax [2]: 1
combination Emax (D-392MG (Glioblastoma)): 0.235
combination Emax [3]: 0.457
combination Emax [4]: 0.293
combination Emax (EW-22 (Ewing's Sarcoma)): 0.894
combination Emax [5]: 0.827
combination Emax [6]: 0.368
combination Emax [7]: 0.593
combination Emax [8]: 0.823
combination Emax (HuO9 (Osteosarcoma)): 0.792
combination Emax [9]: 0.223
combination Emax (MSTO-211H (Mesothelioma)): 0.696
combination Emax [10]: 0.6
combination Emax [11]: 0.289
combination Emax (SK-MEL-1 (Melanoma)): 0.42
combination Emax [12]: 0.668
combination Emax [13]: 0.902

CCN(CCO)CCCOc1ccc2c(Nc3cc(CC(=O)Nc4cccc(F)c4)[nH]n3)ncnc2c1 [AZD2811] + C=CCn1c(=O)c2cnc(Nc3ccc(N4CCN(C)CC4)cc3)nc2n1-c1cccc(C(C)(C)O)n1 [AZD1775] (first compound max 1 µM, partner max 1 µM)
combination Emax [1]: 0.415
combination Emax (CS1 (Chondrosarcoma)): 0.45
combination Emax [2]: 1
combination Emax (D-392MG (Glioblastoma)): 0.168
combination Emax [3]: 0.463
combination Emax [4]: 0.239
combination Emax (EW-22 (Ewing's Sarcoma)): 0.678
combination Emax [5]: 0.857
combination Emax [6]: 0.392
combination Emax [7]: 0.623
combination Emax [8]: 0.935
combination Emax (HuO9 (Osteosarcoma)): 0.686
combination Emax [9]: 0.223
combination Emax (MSTO-211H (Mesothelioma)): 0.618
combination Emax [10]: 0.568
combination Emax [11]: 0.222
combination Emax (SK-MEL-1 (Melanoma)): 0.353
combination Emax [12]: 0.482
combination Emax [13]: 0.888
